Common to all, as to assay type: binding
Experiment [1] addresses T1, 14‐3‐3 τ (Homo sapiens, UniProt P27348).
T1 construct: full‐length proteins were concentrated by centrifugation, rebuffered in HEPES buffer; made in house; host or cells: E. coli BL21(DE3)
T1 sequence (P27348 1-245): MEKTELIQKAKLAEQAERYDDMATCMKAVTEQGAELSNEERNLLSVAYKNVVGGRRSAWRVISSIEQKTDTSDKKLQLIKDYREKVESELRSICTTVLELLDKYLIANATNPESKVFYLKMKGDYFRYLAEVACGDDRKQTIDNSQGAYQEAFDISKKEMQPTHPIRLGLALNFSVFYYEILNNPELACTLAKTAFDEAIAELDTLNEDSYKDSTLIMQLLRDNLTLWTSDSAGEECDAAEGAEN
Put plainly: Fluorescence anisotropy direct titration, 14‐3‐3τ. The conditions noted are these: FA direct titration; FAM‐Ahx tracer peptide 50 nM; HEPES/NaCl/Tween 20/BSA pH 7.4; 1:1 fit; n = 3; read-out: K d, 14‐3‐3 τ. An excerpt: (§1) 14‐3‐3 proteins were titrated against a constant concentration of the tracer resulting in an increase of anisotropy upon engaging 14‐3‐3 proteins (Fig. 2A–C for 14‐3‐3 binding hDMX sequences and Figs S4–S6, for 14‐3‐3 binding hDM2 sequences, non‐binding sequence, and unphosphorylated controls). A noteworthy feature of the data is that different maximum anisotropy levels were observed between hDMX or hDM2 peptides and 14‐3‐3 isoforms, indicating different diffusion properties of the fluorophore when bound to the different 14‐3‐3 isoforms. […]
(§2) […]
(§3) All assays were performed in 384 well plates (each experiment was run in triplicates) and data were collected by Perkin Elmer EnVision […] plate reader with excitation at 480 nm (30 nm bandwidth), polarised dichroic mirror at 505 nm and emission at 535 nm (40 nm bandwidth, S and P polarised). […] A ½ fold dilution series was performed in the titration, with plates read after 30 min, 4 h and 20–24 h. […] Total intensity I and anisotropy r were calculated using Equations 1 and 2 for each well. […]

Experiment [2] has as its target T2, 14‐3‐3 σ (Homo sapiens, UniProt P31947).
T2 construct: full‐length proteins were concentrated by centrifugation, rebuffered in HEPES buffer; made in house; host or cells: E. coli BL21(DE3)
T2 sequence (P31947 1-248): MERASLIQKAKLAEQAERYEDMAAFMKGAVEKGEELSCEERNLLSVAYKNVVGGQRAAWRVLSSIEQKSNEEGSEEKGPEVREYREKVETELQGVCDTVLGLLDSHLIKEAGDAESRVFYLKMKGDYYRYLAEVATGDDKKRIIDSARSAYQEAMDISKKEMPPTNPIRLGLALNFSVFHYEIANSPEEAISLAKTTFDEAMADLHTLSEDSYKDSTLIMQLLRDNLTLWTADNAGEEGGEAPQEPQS
As to the kind of experiment: Fluorescence anisotropy direct titration, 14‐3‐3σ. The conditions noted are these: FA direct titration; FAM‐Ahx tracer peptide 50 nM; HEPES/NaCl/Tween 20/BSA pH 7.4; 1:1 fit; n = 3; read-out: K d, 14‐3‐3 σ.
Description: as §1, §2, §3

In experiment [3] the target is T3, 14‐3‐3 ε (Homo sapiens, UniProt P62258).
T3 construct: full‐length proteins were concentrated by centrifugation, rebuffered in HEPES buffer; made in house; host or cells: E. coli BL21(DE3)
T3 sequence (P62258 1-255): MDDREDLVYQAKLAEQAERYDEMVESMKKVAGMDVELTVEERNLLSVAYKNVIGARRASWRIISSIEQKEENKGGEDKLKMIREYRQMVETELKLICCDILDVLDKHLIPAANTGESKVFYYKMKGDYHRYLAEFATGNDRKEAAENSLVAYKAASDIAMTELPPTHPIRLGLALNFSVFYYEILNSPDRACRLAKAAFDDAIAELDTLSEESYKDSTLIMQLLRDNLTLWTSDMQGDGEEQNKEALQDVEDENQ
Put plainly: Fluorescence anisotropy direct titration, 14‐3‐3ε. The conditions noted are these: FA direct titration; FAM‐Ahx tracer peptide 50 nM; HEPES/NaCl/Tween 20/BSA pH 7.4; 1:1 fit; n = 3; read-out: K d, 14‐3‐3 ε.
Description: as §1, §2, §3

This note sets out measurements from paper PMC9541495, “Understanding the interaction of 14‐3‐3 proteins with hDMX and hDM2: a structural and biophysical study” (The Febs Journal, 2022).

Where a SMILES comes first, the peptide text is derived from it. [ ]: non-standard residue; d: D form. The star is where a group is joined. 5FAM = O=C1OC2(c3ccc(O)cc3Oc3cc(O)ccc32)c2ccc(C(=O)*)cc21; pS = N[C@@H](COP(=O)(O)O)C(=O)O; Ahx = NCCCCCC(=O)O

For the molecule `CC[C@H](C)[C@H](NC(=O)[C@H](CO)NC(=O)[C@H](CC(=O)O)NC(=O)[C@H](COP(=O)(O)O)NC(=O)[C@H](CCCCN)NC(=O)[C@H](Cc1c[nH]cn1)NC(=O)[C@H](CCCNC(=N)N)NC(=O)[C@H](CCCCN)NC(=O)[C@H](CCCNC(=N)N)NC(=O)[C@H](CCC(N)=O)NC(=O)CCCCCNC(=O)c1ccc2c(c1)C(=O)OC21c2ccc(O)cc2Oc2cc(O)ccc21)C(=O)N[C@@H](CO)C(=O)N[C@@H](CC(C)C)C(=O)N[C@@H](CO)C(N)=O` [hDM2_180‐192 ^pSer186] ({5FAM-Ahx}-QRKRHK[pS]DSISLS-NH2), the figures for the Kd in experiment [1], in experiment [2] and in experiment [3] were more than 250 µM, more than 170 µM and more than 260 µM, respectively.
